Data published in paper PMC10733469, “Antiviral activity of chrysin and naringenin against porcine epidemic diarrhea virus infection” (Frontiers in Veterinary Science, 2023).
≈ marks a conversion by molar mass, not a printed value. Where two headings read alike, the source gives them in different places.

How the values were obtained:
Cytotoxicity assay (MTT) = format: cell-based; details: African green monkey
Experimental: (§1) Then, different concentrations of compounds in DMEM were added to cells and incubated for another 48 h. […] MTT solution (10 μL per well) was added and incubated for another 4 h at 37°C, discarding the native compounds and using dimethyl sulfoxide (DMSO) to dissolve products for 10 min at 37°C. Microplate reader (BioTek, Winooski, VT, United States) was used to measure the 96-well plate at 570 nm, and the cell viability (%) was calculated by OD values ([23]). […] The percentage of relative cell viability was calculated according to the formula: […]%=[…]

PEDV CV777 [1] = experiment: Antiviral activity assay (MTT, virus inhibition rate), PEDV CV777; details: Porcine epidemic diarrhea virus, Vero C1008, read-out: IC50 PEDV CV777
PEDV DY [2] = experiment: Antiviral activity assay (MTT, virus inhibition rate), PEDV DY; details: Porcine epidemic diarrhea virus, Vero C1008, read-out: IC50 PEDV DY
PEDV [3] = experiment: Antiviral activity assay, PEDV strain not stated; details: Porcine epidemic diarrhea virus, read-out: IC50 values against PEDV
PEDV [4] = experiment: Time-of-addition assay, prophylactic stage (qPCR, western blot); format: cell-based, porcine epidemic diarrhea virus; details: for viral mRNA quantitation: qPCR; for expression level of PEDV N protein: western blot, concentration dependent
PEDV [5] = experiment: Time-of-addition assay, viral entry stage (qPCR); format: cell-based, porcine epidemic diarrhea virus
PEDV CV777 [6] = experiment: Virus titration (TCID50, Reed-Muench), PEDV CV777; format: cell-based, porcine epidemic diarrhea virus; details: for virus titer vs virus control group: PEDV CV777, 24, 36 and 48 hpi, p < 0.01
PEDV [7] = experiment: Indirect immunofluorescence assay of viral load; details: Vero E6 cells, 48 h after infection, concentration dependent
PEDV [8] = experiment: Viral quantification by qPCR at different time points; format: cell-based, porcine epidemic diarrhea virus; details: 24 hpi and 48 hpi, p < 0.001
PEDV DY [9] = experiment: Virus titration (TCID50, Reed-Muench), PEDV DY; format: cell-based, porcine epidemic diarrhea virus; details: for virus titer vs virus control group: PEDV DY, 24, 36 and 48 hpi, p < 0.01
DENV-2 [10] = system: DENV-2; design: method as in doi:10.1186/1743-422X-8-560; details: 50 μg/mL after virus incubation; cited from earlier work
PEDV [11] = experiment: Time-of-addition assay, post-viral entry stage (qPCR, western blot); format: cell-based, porcine epidemic diarrhea virus; details: for viral nucleic acid copy numbers vs control group: qPCR, p < 0.05; for expression level of PEDV N protein: western blot, concentration dependent
Vero E6 cells = experiment: Cytotoxicity assay (MTT); format: cell-based
Experimental: as §1

mice = details: animal tests; cited from earlier work
enterovirus 71 = system: enterovirus 71; design: method as in PMID 24598537; details: replication of enterovirus 71, by inhibiting 3CLpro protein activity; cited from earlier work
[12] = system: human Huh 7 it-1 cell line; design: method as in doi:10.1088/1755-1315/462/1/012033; details: cited from earlier work
DENV-2 [13] = system: DENV-2; design: method as in doi:10.1088/1755-1315/462/1/012033; details: cited from earlier work
[14] = Vero E6 cells, MTT, 48 h incubation, read-out: CC50

With `CC1(C)[C@@H](O)CC[C@]2(C)[C@H]3C(=O)C=C4[C@@H]5C[C@@](C)(C(=O)O)CC[C@]5(C)CC[C@@]4(C)[C@]3(C)CC[C@@H]12` [Glycyrrhetinic acid, glycyrrhetinic acid] the CC50 at 48 h (Cytotoxicity assay (MTT)) was 17.4 ± 4.61 µg/mL (≈ 37 µM), the IC50 (PEDV CV777 [1]) was > 100 µg/mL and the IC50 (PEDV DY [2]) was > 100 µg/mL. The IC50 (PEDV [3]) was > 100 µg/mL.

In the case of `O=C1C[C@@H](c2ccc(O)cc2)Oc2cc(O)cc(O)c21` [Naringenin, naringenin], the CC50 at 48 h (Cytotoxicity assay (MTT); [14]) is reported as 61.9 ± 0.97 µg/mL (≈ 227 µM), the “viral mRNA quantitation” value (PEDV [4]; 3.13 μg/mL) is reported as 4.79 × 10^6 copies/μL and the “viral mRNA quantitation” value (PEDV [4]; 6.25 μg/mL) is reported as 3.21 × 10^6 copies/μL. The “viral mRNA quantitation” value (PEDV [4]; 12.5 μg/mL) was 2.17 × 10^6 copies/μL, the “expression level of PEDV N protein” value (PEDV [4]) was “significantly inhibit” and the “inhibitory effect, nucleic acid copy numbers vs control group” value (PEDV [5]) was “did not show significant inhibitory effects”. The IC50 (PEDV CV777 [1]) was 4.39 ± 0.96 µg/mL (≈ 16.1 µM), the IC50 (PEDV DY [2]) was 4.5 ± 2.25 µg/mL (≈ 16.5 µM) and the “virus titer vs virus control group” value (PEDV CV777 [6]) was “significantly lower”. For the same molecule, the “green fluorescence of viral proteins (IFA)” value (PEDV [7]) was “diminished to varying extents”, the “virus copy numbers vs control group” value (PEDV [8]; 12.5 μg/mL) was “significantly lower than in the control group” and the “virus titer vs virus control group” value (PEDV DY [9]) was “significantly lower”. For the same molecule, the “reduction of DENV-2 RNA levels” value (DENV-2 [10]) was 50%, the “viral nucleic acid copy numbers vs control group” value (PEDV [11]) was “significantly lower than those in the control group” and the “expression level of PEDV N protein” value (PEDV [11]) was “significantly inhibit”.

For soy isoflavone, the CC50 (Vero E6 cells) was 53.03 ± 2.30 µg/mL.

In the case of `CC1(C)CC[C@]2(C(=O)O)CC[C@]3(C)C(=CC[C@@H]4[C@@]5(C)CC[C@H](O)C(C)(C)[C@@H]5CC[C@]43C)[C@@H]2C1` [Oleanolic acid, oleanolic acid], the CC50 at 48 h (Cytotoxicity assay (MTT); [14]) is reported as 4.05 ± 3.91 µg/mL (≈ 8.88 µM), the IC50 (PEDV CV777 [1]) is reported as > 100 µg/mL and the IC50 (PEDV DY [2]) is reported as > 100 µg/mL. For the same molecule, the IC50 (PEDV [3]) was > 100 µg/mL.

In the case of `O=c1cc(-c2ccccc2)oc2cc(O)cc(O)c12` [Chrysin, chrysin], the toxic effects (mice) is listed as “no toxic effects on mice”, the CC50 at 48 h (Cytotoxicity assay (MTT)) is listed as 83.6 ± 2.12 µg/mL (≈ 329 µM) and the “viral mRNA quantitation” value (PEDV [4]; 12.5 μg/mL) is listed as 3.87 × 10^6 copies/μL. The “viral mRNA quantitation” value (PEDV [4]; 25 μg/mL) was 1.78 × 10^6 copies/μL, the “viral mRNA quantitation” value (PEDV [4]; 50 μg/mL) was 1.19 × 10^6 copies/μL and the “expression level of PEDV N protein” value (PEDV [4]) was “significantly inhibit”. For the same molecule, the “inhibitory effect, nucleic acid copy numbers vs control group” value (PEDV [5]) was “did not show significant inhibitory effects”, the IC50 (PEDV CV777 [1]) was 2.19 ± 2.25 µg/mL (≈ 8.62 µM) and the IC50 (PEDV DY [2]) was 2.48 ± 0.59 µg/mL (≈ 9.77 µM). The IC50 (enterovirus 71) was 24.1 µM, the “virus titer vs virus control group” value (PEDV CV777 [6]) was “significantly lower” and the “green fluorescence of viral proteins (IFA)” value (PEDV [7]) was “diminished to varying extents”. The “virus copy numbers vs control group” value (PEDV [8]; 50 μg/mL) was “significantly lower than in the control group”, the “virus titer vs virus control group” value (PEDV DY [9]) was “significantly lower” and the “viral nucleic acid copy numbers vs control group” value (PEDV [11]) was “significantly lower than those in the control group”. The “expression level of PEDV N protein” value (PEDV [11]) was “significantly inhibit”.

For `O=c1c(O)c(-c2ccc(O)c(O)c2)oc2cc(O)cc(O)c12` [quercetin], the CC50 [12] is listed as 217.113 µg/mL (≈ 718 µM), the “IC50 against DENV-2” value (DENV-2 [13]) is listed as 18.41 µg/mL (≈ 60.9 µM) and the IC50 (PEDV [3]) is listed as > 100 µg/mL.

In the case of `NC(=O)c1ncn([C@@H]2O[C@H](CO)[C@@H](O)[C@H]2O)n1` [Ribavirin, ribavirin, reference compound], the CC50 at 48 h (Cytotoxicity assay (MTT)) is reported as 249 ± 4.2 µg/mL (≈ 1020 µM), the IC50 (PEDV CV777 [1]) is reported as 88 ± 3.78 µg/mL (≈ 360 µM) and the IC50 (PEDV DY [2]) is reported as 71.4 ± 3.78 µg/mL (≈ 292 µM). For the same molecule, the “virus titer vs virus control” value (PEDV CV777 [6]; PEDV CV777, 36 h, p < 0.05) was “significantly lower” and the “virus titer vs virus control” value (PEDV DY [9]; PEDV DY, 36 h, p < 0.05) was “significantly lower”.

In the case of `COC(=O)C1=CO[C@@H](O[C@@H]2O[C@H](CO)[C@@H](O)[C@H](O)[C@H]2O)[C@@H]2C(CO)=CC[C@H]12` [Geniposide, geniposide], the CC50 at 48 h (Cytotoxicity assay (MTT); [14]) is reported as 10.4 ± 2.03 µg/mL (≈ 26.7 µM), the IC50 (PEDV CV777 [1]) is reported as > 100 µg/mL and the IC50 (PEDV DY [2]) is reported as > 100 µg/mL. The IC50 (PEDV [3]) was > 100 µg/mL.
